According to patent publication US20240207427A1, “SELECTIVE DRUG RELEASE FROM INTERNALIZED CONJUGATES OF BIOLOGICALLY ACTIVE COMPOUNDS” (priority 2021, published 2024):
Where two headings read alike, the source gives them in different places.

Tests used:
Type in all cases: cell-based
[1] = test system: B-lymphocyte cancer cells (SU-DHL4); test: In vitro potency (CellTiter-Glo, 96 h), SU-DHL-4; conditions: Homo sapiens, SU-DHL-4, 96 h
In short: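 Authenticated lines (STR), used within 2 months of resuscitation, were seeded 24 h before treatment. Exposure to ADC dilutions lasted 96 h at 37 °C in RPMI 1640 with 20% FBS; viability was quantified luminescently.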

[2] = test system: acute myeloid leukemia cells (MOLM-13); test: In vitro potency (CellTiter-Glo, 96 h), MOLM-13; conditions: Homo sapiens, MOLM-13, 96 h
In short: (§1)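 Medium: RPMI 1640 + 20% FBS. Pre-seeding: 24 h. Treatment: ADC or CPT free drug serial dilutions, 96 h, 37 °C. Read-out: luminescence; IC50 in ng/mL and nmol/L.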

[3] = test system: anaplastic large cell lymphoma cells (DELBVR); test: In vitro potency (CellTiter-Glo, 96 h), DELBVR
In short: (§2)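 Cells in log-phase growth seeded 24 h in RPMI 1640 with 20% FBS, then exposed to serially diluted ADC or CPT free drug for 96 h at 37 °C. Growth inhibition read by CellTiter-Glo luminescence; IC50 reported in ng/mL or nmol/L.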

[4] = test system: non-small-cell lung cancer cells (Calu1); test: In vitro potency (CellTiter-Glo, 96 h), Calu1; conditions: Homo sapiens, Calu-1, 96 h
Description: (§3) In vitro potency was assessed on multiple cancer cell lines. All cell lines were authenticated by STR profiling at IDEXX Bioresearch and cultured for no more than 2 months after resuscitation. Cells cultured in log-phase growth were seeded for 24 hours in 96-well plates containing […] RPMI 1640 supplemented with 20% FBS. Serial dilutions of antibody-drug conjugates in cell culture media were prepared at 4× working concentrations, and 50 μL of each dilution was added to the 96-well plates. Following addition of test articles, cells were incubated with test articles for 4 days at 37 0° C. After 96 hours, growth inhibition was assessed by CellTiterGlo® (Promega, Madison, WI) and luminescence was measured on a plate reader.
In Table 7, IC50 values for ADCs are given in ng/mL. Cell viability was determined by CellTiter-Glo staining after 96 h exposure to ADC. ND=Not Determined. Ag2 is an antibody targeting a ubiquitous and readily internalizable antigen. The cancer cell lines tested are renal carcinoma cells (786-0), melanoma cells (A2058), pancreatic cancer cells (BxPC3), non-small-cell lung cancer cells (Calu1), anaplastic large cell lymphoma cells (DEL, DELBVR, Karpas299), Hodgkin's lymphoma cells (L540cy), (Ls174T), breast cancer cells (MDA-MB-231), acute myeloid leukemia cells (MOLM-13), and B-lymphocyte cancer cells (SU-DHL4).
In vitro potency was assessed on multiple cancer cell lines. All cell lines were authenticated by STR profiling at IDEXX Bioresearch and cultured for no more than 2 months after resuscitation. Cells cultured in log-phase growth were seeded for 24 hours in 96-well plates containing […] RPMI 1640 supplemented with 20% FBS. Following addition of test articles, cells were incubated with test articles for 4 days at 37 0° C. After 96 hours, growth inhibition was assessed by CellTiterGlo® (Promega, Madison, WI) and luminescence was measured on a plate reader.
Cell viability was determined by CellTiter-Glo staining after 96 h exposure to the compound. ND=Not Determined. The cancer cell lines tested are renal carcinoma cells (786-0), melanoma cells (A2058), pancreatic cancer cells (BxPC3), non-small-cell lung cancer cells (Calu1), anaplastic large cell lymphoma cells (DEL, DELBVR, Karpas299), Hodgkin's lymphoma cells (L540cy), (Ls 174T), breast cancer cells (MDA-MB-231), acute myeloid leukemia cells (MOLM-13), B-lymphocyte cancer cells (SU-DHL4), multiple myeloma cells (MM.1R), (U266), and melanoma cells (SK-MEL-5).
as §3, with “37°” for “37 0°”
In the following Tables IC50 values for ADCs and CPT free drugs are given in ng/mL and nmol/L concentrations. Cell viability was determined by CellTiter-Glo staining after 96 h exposure to ADC or CPT free drug.
Cell viability was determined by CellTiter-Glo staining after 96 h exposure to ADC. ND=Not Determined.

Ls174T cells = test: In vitro potency (CellTiter-Glo, 96 h), Ls174T; conditions: Homo sapiens, LS174T; CPT free drugs, Table 24; CellTiter-Glo after 96 h exposure; read-out: IC50 (nmol/L) Ls174T
In short: as §2

[5] = test system: breast cancer cells (MDA-MB-231); test: In vitro potency (CellTiter-Glo, 96 h), MDA-MB-231; conditions: Homo sapiens, MDA-MB-231, 96 h
In short: as §2

[6] = test system: pancreatic cancer cells (BxPC3); test: In vitro potency (CellTiter-Glo, 96 h), BxPC3; conditions: Homo sapiens, BXPC-3, 96 h
In short: as §1

[7] = test system: anaplastic large cell lymphoma cells (Karpas299); test: In vitro potency (CellTiter-Glo, 96 h), Karpas299; conditions: Homo sapiens, KARPAS-299, 96 h
In short: as §2

[8] = test system: Hodgkin's lymphoma cells (L540cy); test: In vitro potency (CellTiter-Glo, 96 h), L540cy
In short: as §2

[9] = test system: anaplastic large cell lymphoma cells (DEL); test: In vitro potency (CellTiter-Glo, 96 h), DEL
In short: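 IC50 (ng/mL or nmol/L) derived from CellTiter-Glo luminescence after 96 h exposure at 37 °C to serial dilutions of ADC or CPT free drug. Log-phase cells had been plated 24 h beforehand in RPMI 1640 containing 20% FBS.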

melanoma cells (A2058) = test: In vitro potency (CellTiter-Glo, 96 h), A2058; conditions: Homo sapiens, A2058, 96 h
In short: as §2

[10] = test system: renal carcinoma cells (786-O); test: In vitro potency (CellTiter-Glo, 96 h), 786-O; conditions: Homo sapiens, 786-0, 96 h
In short: as §2

[11] = CPT free drugs, Table 24, CellTiter-Glo after 96 h exposure, read-out: IC50 (nmol/L) SU-DHL-4
[12] = CPT free drugs, Table 24, CellTiter-Glo after 96 h exposure, read-out: IC50 (nmol/L) MOLM-13
[13] = CPT free drugs, Table 24, CellTiter-Glo after 96 h exposure, read-out: IC50 (nmol/L) DELBVR
[14] = CPT free drugs, Table 24, CellTiter-Glo after 96 h exposure, read-out: IC50 (nmol/L) Calu1
[15] = CPT free drugs, Table 24, CellTiter-Glo after 96 h exposure, read-out: IC50 (nmol/L) MDAMB231
[16] = CPT free drugs, Table 24, CellTiter-Glo after 96 h exposure, read-out: IC50 (nmol/L) BxPC3
[17] = CPT free drugs, Table 24, CellTiter-Glo after 96 h exposure, read-out: IC50 (nmol/L) Karpas299
[18] = CPT free drugs, Table 24, CellTiter-Glo after 96 h exposure, read-out: IC50 (nmol/L) L540cy
[19] = CPT free drugs, Table 24, CellTiter-Glo after 96 h exposure, read-out: IC50 (nmol/L) DEL
[20] = CPT free drugs, Table 24, CellTiter-Glo after 96 h exposure, read-out: IC50 (nmol/L) A2058
[21] = CPT free drugs, Table 24, CellTiter-Glo after 96 h exposure, read-out: IC50 (nmol/L) 786-O

Row | Structure (SMILES) | IC50 [1, 11] [nmol/L] | IC50 [2, 12] [nmol/L] | IC50 [3, 13] [nmol/L] | IC50 [4, 14] [nmol/L] | IC50 (Ls174T cells) [nmol/L] | IC50 [5, 15] [nmol/L] | IC50 [6, 16] [nmol/L] | IC50 [7, 17] [nmol/L] | IC50 [8, 18] [nmol/L] | IC50 [9, 19] [nmol/L] | IC50 (melanoma cells (A2058); [20]) [nmol/L] | IC50 [10, 21] [nmol/L] | other results
1 | CC[C@@]1(O)C(=O)OCc2c1cc1n(c2=O)Cc2c-1nc1cc3c(cc1c2CN)OCO3 [AMDCPT, (5S)-14-(aminomethyl)-5-ethyl-5-hydroxy-7,18,20-trioxa-11,24-diazahexacyclo[11.11.0.02,11.04,9.015,23.017,21]tetracosa-1(13),2,4(9),14,16,21,23-heptaene-6,10-dione, reference compound] | 1 | 4.3 | 0.8 | 14.4 | 1 | 1.4 | 3.6 | 1.8 | 1 | 0.4 | 0.7 | 1.9 | IC50 ([1]; camptothecin free drug, 96 h, read-out: SU-DHL-4 IC50): 2 nmol/L; IC50 ([2]; camptothecin free drug, 96 h, read-out: MOLM-13 IC50): 20 nmol/L; IC50 ([3]; camptothecin free drug, read-out: DELBVR IC50): 1 nmol/L; IC50 ([4]; camptothecin free drug, 96 h, read-out: Calu1 IC50): 52 nmol/L; IC50 ([5]; camptothecin free drug, 96 h, read-out: MDAMB231 IC50): 21 nmol/L; IC50 ([6]; camptothecin free drug, 96 h, read-out: BxPC3 IC50): 3 nmol/L; IC50 ([7]; camptothecin free drug, 96 h, read-out: Karpas299 IC50): 2 nmol/L; IC50 ([8]; camptothecin free drug, read-out: L540cy IC50): 1 nmol/L; IC50 ([9]; camptothecin free drug, read-out: DEL IC50): 1 nmol/L; IC50 (melanoma cells (A2058); camptothecin free drug, 96 h, read-out: A2058 IC50): 3 nmol/L; IC50 ([10]; camptothecin free drug, 96 h, read-out: 786-O IC50): 3 nmol/L
2 | CC[C@@]1(O)C(=O)OCc2c1cc1n(c2=O)Cc2c-1nc1ccc(C)cc1c2CN [Compound 2a] | 4 | 29 | 3 | 42 | 3.9 | 5 | 20 | 9 | 4 | 1 | 3 | 7 | –
3 | CC[C@@]1(O)C(=O)OCc2c1cc1n(c2=O)Cc2c-1nc1cc(C)c(F)cc1c2CN [Compound 2aa] | 227 | > 1000 | 87 | > 1000 | 240 | > 1000 | > 1000 | 380 | > 1000 | 82 | 130 | 265 | –
4 | CC[C@@]1(O)C(=O)OCc2c1cc1n(c2=O)Cc2c-1nc1cc(Cl)c(C)c(F)c1c2CN [Compound 2ab] | 4 | 53 | 3 | 22 | 6 | 30 | 12 | 7 | 4 | 2 | 3 | 6 | –
5 | CC[C@@]1(O)C(=O)OCc2c1cc1n(c2=O)Cc2c-1nc1cc(F)cc(F)c1c2CN [Compound 2ac] | 4 | 17 | 3 | 68 | 7 | 51 | 16 | 8 | 4 | 2 | 3 | 9 | –
6 | CC[C@@]1(O)C(=O)OCc2c1cc1n(c2=O)Cc2c-1nc1cc(OC)c(OC)cc1c2CN [Compound 2ao, (19S)-10-(aminomethyl)-19-ethyl-19-hydroxy-6,7-dimethoxy-17-oxa-3,13-diazapentacyclo[11.8.0.02,11.04,9.015,20]henicosa-1(21),2,4(9),5,7,10,15 (20)-heptaene-14,18-dione] | > 1000 | > 1000 | > 1000 | > 1000 | > 1000 | > 1000 | > 1000 | > 1000 | > 1000 | 937 | > 1000 | > 1000 | –
7 | CC[C@@]1(O)C(=O)OCc2c1cc1n(c2=O)Cc2c-1nc1ccc(F)cc1c2CN [Compound 2b] | 13 | 19 | 5.7 | 76 | 14 | 17 | 58 | 18 | 6 | 4 | 8 | 27 | –
